Test results reported in US20220378043A1, “BIOFILM TREATMENT AGENT AND BIOFILM TREATMENT METHOD” (SEIKO PMC CORPORATION, priority 2019, published 2022).
In brackets after ≈: the same amount, converted by molar mass. Where two headings read alike, the source gives them in different places. Residues, ends and D or L forms follow the SMILES beside them.

Key:
[1] = system: Pseudomonas aeruginosa (deposit number: NBRC106052 strain); experiment: Minimum inhibitory concentration (MIC) test; assay type: cell-based
Protocol: A compound (hereinafter, sometimes referred to as a substance to be evaluated) that is a component of a biofilm treatment agent is diluted stepwise with a bouillon medium for testing susceptibility to prepare a total amount of 10 mL of dilution series (with the proviso of being 1.1 times the target concentration). 20 μL of a bacterial suspension which has been prepared such that there is 10^8 cfu/mL of Pseudomonas aeruginosa (deposit number: NBRC106052 strain) which is a representative strain of biofilm-forming bacteria as a test bacterial strain is added thereto and subjected to shaking culture (2000 rpm) with a 96-well microplate mixer at 37° C. for 24 hours. The lowest concentration in the dilution series which is not visually turbid is regarded as the MIC.
Pseudomonad (gram-negative bacterium) known as a model bacterium forming a biofilm was used as a test bacterium to MIC's of compounds (hereinafter, substances to be evaluated) that are components of a biofilm treatment agent.
(1) Test Bacterium Pseudomonas aeruginosa (Deposit Number: NBRC106052 Strain)
Each substance to be evaluated was diluted stepwise with a bouillon medium for testing susceptibility to prepare a total amount of 10 mL of dilution series (with the proviso of being 1.1 times the target concentration). 20 μL of a bacterial suspension which had been prepared such that there was 10^8 cfu/mL of a test bacterial strain was added thereto and subjected to shaking culture (2000 rpm) with a 96-well microplate mixer at 37° C. for 24 hours. The lowest concentration in the dilution series which was not visually turbid was regarded as the MIC.

[2] = system: Pseudomonas aeruginosa (deposit number: NBRC106052 strain) biofilm; experiment: Evaluation of biofilm-removing effect (crystal violet staining of pre-formed biofilm); assay type: cell-based; details: Table 4: anthranilic acid analog and/or biosurfactant or synthetic surfactant, each at Table 2 concentration, pH 7.0, 3.5 hours contact
Source text: In the present invention, the biofilm-removing effect is an action of removing biofilms formed by bacteria. Examples of methods for evaluating an effect of removing substances to be evaluated include a method for comparing the amount of biofilm formed after bringing the substance to be evaluated into contact with a biofilm formed through culturing bacteria for a certain period of time with the amount of biofilm (control) formed after the elapse of a certain period of time without the biofilm being brought into contact with the substance to be evaluated. In this case, when the amount of biofilm formed is smaller than that of the control, it can be determined that the substance to be evaluated has a biofilm-removing effect.
(i) A triptic soy broth (TBS, Bacto: manufactured by Difco Laboratories) medium having a final concentration of glucose of 1% is used for Pseudomonas aeruginosa (deposit number: NBRC106052 strain) which is a representative strain of biofilm-forming bacteria to prepare a preculture solution under the condition of 120 rpm.
(ii) The preculture solution of which the turbidity (OD) is adjusted to 0.1 is diluted with a TSB medium so that the final concentration is 0.000005% (v/v), and 2 mL of the diluent is dispensed into a 12-well plate. Here, the following OD (turbidity) is a value which is measured with a spectrophotometer (iMark Microplate Reader: manufactured by Bio-Rad Laboratories, Inc.) at a wavelength of 630 nm in which distilled water is used as a blank.
(iii) Culture is performed under the conditions of 37° C. and 130 rpm for 17 hours to form a biofilm.
(iv) The culture solution in each well is removed and each well is rinsed twice with distilled water.
(v) A substance to be evaluated is added to a medium at an appropriate concentration less than the MIC of the target substance, and the pH of the medium is adjusted to 7.0 with hydrochloric acid or sodium hydroxide. 2 mL of a sterile medium (pH=7.0) is added to each well to be used as a negative control.
(vi) Each well is shaken at the same temperature as that of the preculture for 3.5 hours at 130 rpm, the biofilm is brought into contact with the medium containing the substance to be evaluated, and then, the medium in each well is removed, and each well is rinsed twice with distilled water.
(vii) 2 mL of an aqueous crystal violet solution (0.4 w/v %, 20 w/v % methanol) is added to the biofilm adhering in each well, allowed to stand for 2 minutes, and allowed to stain, and then, the stained biofilm is rinsed three times with distilled water, and the aqueous crystal violet solution which has not been bound to the biofilm is removed.
(viii) 2 mL of ethanol is added to each well and allowed to stand for 1 hour to elute crystal violet from the stained biofilm, and the absorbance is measured. Here, the following absorbance is a value which is measured with a spectrophotometer (iMark Microplate Reader: manufactured by Bio-Rad Laboratories, Inc.) at a wavelength of 595 nm in which distilled water is used as a blank.
(ix) Regarding the absorbance of the negative control and each substance to be evaluated, absorbances measured for 4 wells are taken as an average value, and the removal rate of each biofilm is calculated from the following calculation equation.
Biofilm removal rate (%)={1-(absorbance of substance to be evaluated/absorbance of negative control)}×100
The biofilm-removing effect and the biofilm formation-inhibiting effect of each of the substances to be evaluated shown in Table 1 were confirmed according to the evaluation methods specified in the present invention using each biofilm treatment agent containing each substance to be evaluated as a biofilm treatment agent component. In addition, evaluation results of the biofilm-removing effect and the biofilm formation-inhibiting effect of each aromatic monohydric alcohol alone are shown in […]

[3] = Pseudomonas aeruginosa, NBRC106052, bouillon medium, 37° C., 24 hours, lowest concentration not visually turbid, read-out: MIC
[4] = Pseudomonas aeruginosa, NBRC106052, 24 h
[5] = bouillon medium, 37° C., 24 hours, lowest concentration not visually turbid

Compound	MIC [1, 3] [µg/mL]	MIC [1, 4] [µg/mL]	Removal results (removal rate %) [2] [%]	further results
OCCc1ccccc1 [Example 3, 2-Phenylethanol]	5000 (≈ 40.9 mM)	–	–	–
CC(O)c1ccccc1 (stereo not drawn) [Example 2, 1-Phenylethanol]	–	5000 (≈ 40.9 mM)	–	–
CCCCCO [Comparative Example 1, 1-Pentanol]	> 5000	–	–	–
NC(=O)c1ccccc1N [Comparative Example 5, Anthranylamide]	–	–	25	MIC [1, 5]: 5,000 ppm
OCC=Cc1ccccc1 [Example 6, Cinnamyl alcohol]	2500 (≈ 18.6 mM)	–	–	–
OCC(CO)c1ccccc1 [compound 2, 2-Phenyl-1,3-propanediol]	> 5000	–	–	–
Rhamnolipid [Comparative Example 8]	–	–	24	MIC [1, 5]: >10,000 ppm
CC(C)CCCCCCCCC[C@@H]1CC(=O)N[C@@H](CCC(=O)O)C(=O)N[C@@H](CC(C)C)C(=O)N[C@H](CC(C)C)C(=O)N[C@@H](C(C)C)C(=O)N[C@@H](CC(=O)O)C(=O)N[C@H](CC(C)C)C(=O)N[C@@H](CC(C)C)C(=O)O1 [Comparative Example 9, Surfactin] (HELM PEPTIDE1{E.L.[dL].V.D.[dL].L}|CHEM1{[CC(C)CCCCCCCCC[C@H](CC(=O)[*:1])O[*:2]]}$PEPTIDE1,CHEM1,1:R1-1:R1|PEPTIDE1,CHEM1,7:R2-1:R2$$$V2.0)	10000 (≈ 9.65 mM)	–	24	–
N#CC(Br)(Br)C(N)=O [compound 4, 2,2-dibromo-3-nitrilopropionamide]	19.5 (≈ 0.0806 mM)	–	–	–
polyoxyethylene lauryl ether [POELE]	–	–	–	MIC [1, 5]: >2,000 ppm
COC(=O)c1ccccc1N [Comparative Example 6, Methyl anthranilate]	–	1250 (≈ 8.27 mM)	33	–
OCC(O)COc1ccccc1 (stereo not drawn) [compound 3, 3-Phenoxy-1,2-propanediol]	–	> 5000	–	–
OCCCOc1ccccc1 [Example 5, 3-Phenoxy-1-propanol]	–	2500 (≈ 16.4 mM)	–	–
CCCCCCCCCCCCOS(=O)(=O)[O-].[Na+] [SDS, sodium dodecyl sulfate]	2000	–	–	–
Nc1ccccc1C(=O)O [Comparative Example 7, Anthranilic acid]	–	10000 (≈ 72.9 mM)	20	–
OCCOc1ccccc1 [Example 4, 2-Phenoxyethanol]	–	2500 (≈ 18.1 mM)	–	–
Sophorolipid [Comparative Example 10]	–	–	36	MIC [1, 5]: >10,000 ppm
OCc1ccccc1 [Example 1, 1-Phenylmethanol]	2500 (≈ 23.1 mM)	–	–	–
